# Patent publication US8575376B2, “Steroide anionic compounds, method of their production, usage and pharmaceutical preparation involving them” (Ustav Organicke Chemie A Biochemie Akademie Ved Ceske …, priority 2009, dated 2013)
# Columns and labels:
# Long-Evans rats = assay: Scopolamine-induced cognitive deficit in AAPA (model of Alzheimer disease); type: in vivo, rat; settings: Example 9 1 ml/kg of 1.0 mg/ml i.p. + scopolamine 2.0 mg/kg
# Procedure: The effect of the compound from example 9 on an animal model of age-related cognitive decline and neurodegenerative disorders (including Alzheimer disease) is documented. In the present experiment the effect of central muscarinic blockade by systemic administration of scopolamine at dose 2.0 mg/kg on both reinforced retention of the AAPA and re-acquisition of the AAPA in a new environment was investigated (by the standard method described previously; see Vales and Stuchlik, 2005).
# The compound from example 9 was dissolved in β-cyclodextrine (at a concentration of 1.0 mg/ml). Animals were injected intraperitoneally with 1 ml/kg b.w. of this solution or with 1 ml/kg b.w. of β-cyclodextrine. All animals thus received the same volume of liquid per body weight in each injection. Injections were delivered 40 min prior to behavioural testing). Scopolamine hydrobromide (scopolamine; Sigma Aldrich) was dissolved in saline (0.9% NaCl, 2.0 mg/ml). Animals were injected intraperitoneally with 1 ml/kg b.w. of this solution or with 1 ml/kg b.w. of saline. All animals thus received the same volume of liquid per body weight in each injection. Injections were delivered 20 min prior to behavioural testing. Adult male hooded rats of the Long-Evans strain (3 months old; weighing 300-400g) was used.
# The active allothetic place avoidance apparatus is described in example 28. […]
# Wistar rats = assay: Spontaneous EEG and epileptic afterdischarges in awake rats; type: in vivo, rat
# Description: To assess the influence of the compound from example 9 on spontaneous EEG, evoked potentials and epileptic afterdischarges, recording electrodes were implanted into the epidural spaces of the adult Wistar rats. Rats were anaesthetized with isoflurane (1.5-2%) and 4 silver wire bare electrodes were inserted epidurally over sensorimotor cortex. Reference and ground electrodes were placed above cerebellum. The whole montage was fixed to the skull with dental acrylic.
# After recovery period (1 week), animals were placed into the plastic boxes and connected to the Video EEG monitoring (VisionBrain/). After 1 hour of background recording the compound from example 9 was administered at the dose of 0.01 mg/kg and EEG was recorded for next 24 hours. Analysis of EEG was performed in a custom-based MATLAB script. Power of the EEG signal was calculated from FFT in frequency band 1.5-45 Hz. Length and duration of spike and wave afterdischarges (SPW) was measured from EEG to assess effect of compound from example 9 (0.01 mg/kg and 10 mg/kg) on epileptiform activity.
# mice (ICR) = assay: Depression-like behavior induced by repeated social defeat, open field; type: in vivo, mouse; settings: 1 and 10 mg/kg orally, 30 min prior
# Procedure: Naive adult male mice (albino out-bred strain ICR, VELAZ s.r.o., Prague, Czech Republic, 30-37 g) were used in this study. Food and water were available ad libitum. Mice were housed either individually without any handling in self-cleaning cages with a grid floor (8×6×13 cm) or in groups of 17-20 in standard plastic cages (38×22×14 cm) with the floors covered with wooden shavings. After 3 weeks, each individually housed mouse was allowed 30 min adaptation in a Plexiglas neutral observation cage (20×20×30 cm) with clean wooden shavings before it was coupled with a group-housed male partner for 4 min/day. […] Animals were housed, and behavioural testing was performed in a different room during the light phase of the constant light-dark cycle with lights on at 6:00 and off at 18:00 h. Temperature was maintained at 21° C., and relative humidity was 50%. The mice were not handled except on the experimental days.
# Group-housed males were used for the experiment. […] Over a 3-min testing period, the distance traveled, as a marker of locomotor/exploratory behaviour, in the open field was measured. […] Thirty minutes following the drug administration, the animal was placed into the open field arena and distance traveled was measured, as described before. […]
smiles,measurement,setting,value
"CC(=O)[C@H]1CC[C@H]2[C@@H]3CC[C@@H]4C[C@H](OC(=O)[C@@H](N)CCC(=O)O)CC[C@]4(C)[C@H]3CC[C@]12C [Example 9, 20-Oxo-5β-pregnan-3α-yl L-glutamyl 1-ester]",scopolamine-induced deficit in AAPA (number of entrances),Long-Evans rats,tends to be decreased
same,spontaneous EEG power,Wistar rats; 60 min and 180 min after application,changes the EEG power at the shorter interval
same,duration and number of spike-wave afterdischarges,Wistar rats; higher dose (10 mg/kg),tended to increase these parameter
same,duration and number of spike-wave afterdischarges,Wistar rats; low dose (0.01 mg/kg),tended to slightly decrease both duration and number of spike-wave episodes
same,hypolocomotion in open field after repeated social defeat,mice (ICR),reduced a hypolocomotion in an open field induced by agonistic interactions in mice
